# Source: ChEMBL document CHEMBL1142867, “Antiviral activity of triazine analogues of 1-(S)-[3-hydroxy-2-(phosphonomethoxy)propyl]cytosine (cidofovir) and related compounds” (J Med Chem, 2007)
# Key:
# [1] = system: Respiratory syncytial virus; assay type: functional, organism-based; details: human respiratory syncytial virus, Long, HeLa
# [2] = system: Vesicular stomatitis virus; assay: microbe, parasite or virus in culture; details: HeLa
# [3] = Cytotoxicity against HeLa cells assessed as alteration in cell morphology; assay type: cell-based; details: human
# [4] = system: Mammalian orthoreovirus 1; assay type: functional, organism-based; details: Mammalian orthoreovirus 1, Vero
# [5] = system: Sindbis virus; assay type: functional, organism-based; details: Vero
# [6] = system: Vesicular stomatitis virus; assay: microbe, parasite or virus in culture; details: E6SM
# [7] = system: Coxsackievirus B4; assay type: functional, organism-based; details: Enterovirus B, Vero
# [8] = system: Human respirovirus 3; assay type: functional, organism-based; details: Human respirovirus 3, Vero
# [9] = system: Coxsackievirus B4; assay type: functional, organism-based; details: Enterovirus B, HeLa
# [10] = Cytotoxicity against E6SM cells assessed as alteration in cell morphology; assay type: cell-based; details: human
# [11] = Cytotoxicity against Vero cells assessed as alteration in cell morphology; assay type: cell-based; details: chlorocebus sabaeus
# [12] = system: Punta Toro virus; assay type: functional, organism-based; details: Vero
# [13] = system: Human alphaherpesvirus 3; assay: Antiviral activity against VZV OKA in HEL cells assessed as inhibition of plaque formation; assay type: functional, organism-based; details: Human alphaherpesvirus 3, OKA
# [14] = system: Human betaherpesvirus 5; assay type: functional, organism-based; details: Human betaherpesvirus 5, AD169, HEL
# [15] = system: Human alphaherpesvirus 1; assay type: functional, organism-based; details: Human alphaherpesvirus 1, KOS, HEL
# [16] = system: Human betaherpesvirus 5; assay type: functional, organism-based; details: Human betaherpesvirus 5, Davis, HEL
# [17] = system: Human alphaherpesvirus 2; assay type: functional, organism-based; details: Human alphaherpesvirus 2, G, HEL
# [18] = system: Human alphaherpesvirus 1; assay type: functional, organism-based; details: Human alphaherpesvirus 1, KOS, HEL; remark: listed apart in the source
# [19] = system: Vaccinia virus; assay type: functional, organism-based; details: Orthopoxvirus vaccinia, Lederle, HEL
# [20] = Cytotoxicity against HSB2 cells assessed as alteration in cell morphology; assay type: cell-based, CCRF-HSB-2; details: human, read-out: Activity
# [21] = system: Human alphaherpesvirus 3; assay: Antiviral activity against TK- VZV 07-1 in HEL cells assessed as inhibition of plaque formation; assay type: functional, organism-based; details: Human alphaherpesvirus 3, 07-1, HEL
# [22] = Cytotoxicity against HEL cells assessed as alteration in cell morphology after 3 days; assay type: cell-based; details: human, read-out: Activity
# [23] = system: HEL; assay: Cytotoxicity against HEL cells assessed as inhibition of cell growth after 3 days; assay type: cell-based; details: human, 72 h
# [24] = system: Human alphaherpesvirus 2; assay type: functional, organism-based; details: Human alphaherpesvirus 2, Lyons, HEL
# [25] = system: Human adenovirus 2; assay type: functional, organism-based; details: Human mastadenovirus C, HEL
# [26] = system: Human immunodeficiency virus 1; assay type: functional, organism-based; details: Human immunodeficiency virus 1, 3B, CCRF-CEM
# [27] = Cytotoxicity against C3H cells assessed as alteration in cell morphology; assay type: cell-based; details: mouse
# [28] = system: Moloney murine sarcoma virus; assay: Antiviral activity against MSV in mouse C3H cells assessed as inhibition of virus-induced transformation after 6 days; assay type: functional, organism-based; details: 144 h
# [29] = system: Yellow fever virus; assay type: functional, organism-based; details: Vero
# [30] = Cytotoxicity against Huh5-2 cells assessed as reduction of cell growth; assay type: cell-based, Huh-5-2; details: human
# [31] = system: Human immunodeficiency virus 2; assay type: functional, organism-based; details: Human immunodeficiency virus 2, ROD, CCRF-CEM
# [32] = Cytotoxicity against CEM cells assessed as reduction of cell growth; assay type: cell-based; details: human, CEM (CCRF-CEM) cells
# [33] = system: Hepatitis C virus; assay: Antiviral activity against HCV in Huh5-2 cells assessed as inhibition of HCV subgenomic replicon replication; assay type: functional, organism-based, Hepacivirus hominis; details: Huh-5-2
Compound,EC50 [1],EC50 [2],MCC [3],EC50 [4],EC50 [5],EC50 [6],EC50 [7],EC50 [8],EC50 [9],MCC [10],MCC [11],EC50 [12],EC50 [13],EC50 [14],EC50 [15],EC50 [16],EC50 [17],EC50 [18],MCC at 72 h [22],Activity [23],further results
NC(=O)c1ncn([C@@H]2O[C@H](CO)[C@@H](O)[C@H]2O)n1 [RIBAVIRIN],16 µg/mL,80 µg/mL,> 400 µg/mL,48 µg/mL,240 µg/mL,240 µg/mL,240 µg/mL,48 µg/mL,48 µg/mL,> 400 µg/mL,> 400 µg/mL,48 µg/mL,–,–,–,–,–,–,–,–,–
Nc1ccn(C[C@@H](CO)OCP(=O)(O)O)c(=O)n1.O.O [CIDOFOVIR],–,–,–,–,–,–,–,–,–,–,–,–,0.077 µg/mL,0.2 µg/mL,0.38 µg/mL,0.3 µg/mL,0.35 µg/mL,0.09 µg/mL,> 100 µg/mL,60.9 µg/mL,EC50 [19]: 2.6 µg/mL; MCC [20]: 37 µg/mL; EC50 [21]: 0.073 µg/mL; EC50 [24]: 0.43 µg/mL; EC50 [25]: 1.53 µg/mL
Nc1cnn(C[C@@H](CO)OCP(=O)(O)O)c(=O)n1,> 400 µg/mL,> 400 µg/mL,> 400 µg/mL,> 80 µg/mL,> 80 µg/mL,> 400 µg/mL,> 80 µg/mL,> 80 µg/mL,> 400 µg/mL,> 400 µg/mL,400 µg/mL,> 80 µg/mL,38.2 µg/mL,30 µg/mL,24.9 µg/mL,37.3 µg/mL,31.5 µg/mL,8.84 µg/mL,> 100 µg/mL,> 50 µg/mL,EC50 [26]: > 100 µg/mL; MCC [27]: 100 µg/mL; EC50 [28]: 170 µg/mL; EC50 [19]: 63.1 µg/mL; EC50 [29]: > 100 µg/mL; CC50 [30]: 111 µg/mL; EC50 [31]: > 100 µg/mL; EC50 [21]: 18.4 µg/mL; CC50 [32]: > 100 µg/mL; EC50 [33]: 750 µg/mL; EC50 [24]: ≥ 43.4 µg/mL; EC50 [25]: > 100 µg/mL
Nc1nc2c(ncn2COCCO)c(=O)[nH]1 [ACYCLOVIR],–,–,–,–,–,–,–,–,–,–,–,–,–,–,> 20 µg/mL,–,0.048 µg/mL,0.015 µg/mL,> 100 µg/mL,173.5 µg/mL,–
Nc1ncn(C[C@H](CO)OCP(=O)(O)O)c(=O)n1,> 200 µg/mL,> 200 µg/mL,> 200 µg/mL,> 200 µg/mL,> 200 µg/mL,> 200 µg/mL,> 200 µg/mL,> 200 µg/mL,> 200 µg/mL,> 200 µg/mL,> 200 µg/mL,> 200 µg/mL,13.8 µg/mL,7.3 µg/mL,17.8 µg/mL,8.9 µg/mL,12.6 µg/mL,11.8 µg/mL,> 100 µg/mL,> 100 µg/mL,EC50 [26]: > 100 µg/mL; MCC [27]: > 100 µg/mL; EC50 [28]: > 100 µg/mL; EC50 [19]: ≥ 81.6 µg/mL; CC50 [30]: > 50 µg/mL; EC50 [31]: > 100 µg/mL; CC50 [32]: > 100 µg/mL; EC50 [24]: 14.8 µg/mL
O=c1[nH]c(=O)n([C@H]2C[C@H](O)[C@@H](CO)O2)cc1/C=C/Br [BRIVUDINE],> 400 µg/mL,> 400 µg/mL,> 400 µg/mL,> 400 µg/mL,> 400 µg/mL,> 400 µg/mL,> 400 µg/mL,> 400 µg/mL,> 400 µg/mL,> 400 µg/mL,> 400 µg/mL,> 400 µg/mL,0.0069 µg/mL,–,> 20 µg/mL,–,–,0.0025 µg/mL,> 100 µg/mL,>= 100 ug ml-1,EC50 [26]: > 100 µg/mL; MCC [27]: > 100 µg/mL; EC50 [28]: > 100 µg/mL; EC50 [31]: > 100 µg/mL; EC50 [21]: ≥ 122 µg/mL
NC(N)=NC(=O)NC[C@@H](CO)OCP(=O)(O)O,> 100 µg/mL,> 100 µg/mL,> 100 µg/mL,> 100 µg/mL,> 100 µg/mL,> 100 µg/mL,> 100 µg/mL,> 100 µg/mL,> 100 µg/mL,> 100 µg/mL,> 100 µg/mL,> 100 µg/mL,> 50 µg/mL,35.5 µg/mL,> 50 µg/mL,36.8 µg/mL,> 50 µg/mL,> 50 µg/mL,> 50 µg/mL,> 50 µg/mL,EC50 [26]: > 100 µg/mL; MCC [27]: > 100 µg/mL; EC50 [28]: 68 µg/mL; EC50 [19]: > 100 µg/mL; EC50 [29]: > 100 µg/mL; CC50 [30]: > 50 µg/mL; MCC [20]: > 200 µg/mL; EC50 [31]: > 100 µg/mL; EC50 [21]: > 50 µg/mL; CC50 [32]: > 100 µg/mL; EC50 [24]: > 50 µg/mL; EC50 [25]: > 100 µg/mL
